From patent US9981959B2, “Thiazolyl and oxazolyl urea, thiourea, guanidine and cyanoguanidine compounds as TrkA kinase inhibitors” (Array BioPharma Inc., priority 2012, dated 2018)

Legend:
Assay in all cases: KinaseProfiler off-target kinase profiling
Assay type in all cases: biochemical
Details in all cases: 10 μM, ATP near Km
CDK1/cyclinB = target: T1, CDK1/cyclinB (Homo sapiens, UniProt P06493)
T1 construct: purchased Millipore (KinaseProfiler service)
In short: (§1)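 The kinase was incubated with 10 μM compound and ATP near its Km. Two replicates were run, and their mean activity is given as percent of control.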

CDK5/p35 = target: T2, CDK5/p35 (Homo sapiens, UniProt Q00535)
T2 construct: purchased Millipore, Inc. (KinaseProfiler service)
In short: as §1

CDK7/cyclinH/MAT1 = target: T3, CDK7/cyclinH/MAT1 (Homo sapiens, UniProt P50613)
T3 construct: purchased Millipore, Inc. (KinaseProfiler service)
In short: as §1

CSK = target: T4, CSK (Homo sapiens, UniProt P41240)
T4 construct: purchased Millipore, Inc. (KinaseProfiler service)
In short: as §1

DCAMKL2 = target: T5, DCAMKL2 (Homo sapiens, UniProt Q8N568)
T5 construct: purchased Millipore, Inc. (KinaseProfiler service)
In short: as §1

EphB4 = target: T6, EphB4 (Homo sapiens, UniProt P54760)
T6 construct: purchased Millipore, Inc. (KinaseProfiler service)
In short: as §1

FAK = target: T7, FAK (Homo sapiens, UniProt Q05397)
T7 construct: purchased Millipore, Inc. (KinaseProfiler service)
In short: as §1

FGFR3 = target: T8, FGFR3 (Homo sapiens, UniProt P22607)
T8 construct: purchased Millipore, Inc. (KinaseProfiler service)
In short: as §1

Flt4 = target: T9, Flt4 (Homo sapiens, UniProt P35916)
T9 construct: purchased Millipore, Inc. (KinaseProfiler service)
In short: as §1

Hck = target: T10, Hck (Homo sapiens, UniProt P08631)
T10 construct: purchased Millipore, Inc. (KinaseProfiler service)
In short: as §1

IR = target: T11, IR (Homo sapiens, UniProt P06213)
T11 construct: purchased Millipore, Inc. (KinaseProfiler service)
In short: as §1

IRAK4 = target: T12, IRAK4 (Homo sapiens, UniProt Q9NWZ3)
T12 construct: purchased Millipore, Inc. (KinaseProfiler service)
In short: as §1

ITK = target: T13, ITK (Homo sapiens, UniProt Q08881)
T13 construct: purchased Millipore, Inc. (KinaseProfiler service)
In short: as §1

Lck = target: T14, Lck (Homo sapiens, UniProt P06239)
T14 construct: purchased Millipore, Inc. (KinaseProfiler service)
In short: as §1

MAPKAP-K2 = target: T15, MAPKAP-K2 (Homo sapiens, UniProt P49137)
T15 construct: purchased Millipore, Inc. (KinaseProfiler service)
In short: as §1

MAPKAP-K5 = target: T16, MAPKAP-K5 (Homo sapiens, UniProt Q8IW41)
T16 construct: purchased Millipore, Inc. (KinaseProfiler service)
In short: as §1

MEK1 = target: T17, MEK1 (Homo sapiens, UniProt Q02750)
T17 construct: purchased Millipore, Inc. (KinaseProfiler service)
In short: as §1

MRCKalpha = target: T18, MRCKalpha (Homo sapiens, UniProt Q5VT25)
T18 construct: purchased Millipore, Inc. (KinaseProfiler service)
In short: as §1

NEK2 = target: T19, NEK2 (Homo sapiens, UniProt P51955)
T19 construct: purchased Millipore, Inc. (KinaseProfiler service)
In short: as §1

NEK6 = target: T20, NEK6 (Homo sapiens, UniProt Q9HC98)
T20 construct: purchased Millipore, Inc. (KinaseProfiler service)
In short: as §1

NLK = target: T21, NLK (Homo sapiens, UniProt Q9UBE8)
T21 construct: purchased Millipore, Inc. (KinaseProfiler service)
In short: as §1

PKCepsilon = target: T22, PKCepsilon (Homo sapiens, UniProt Q02156)
T22 construct: purchased Millipore, Inc. (KinaseProfiler service)
In short: as §1

PKCeta = target: T23, PKCeta (Homo sapiens, UniProt P24723)
T23 construct: purchased Millipore, Inc. (KinaseProfiler service)
In short: as §1

PKCgamma = target: T24, PKCgamma (Homo sapiens, UniProt P05129)
T24 construct: purchased Millipore, Inc. (KinaseProfiler service)
In short: as §1

PKCtheta = target: T25, PKCtheta (Homo sapiens, UniProt Q04759)
T25 construct: purchased Millipore, Inc. (KinaseProfiler service)
In short: as §1

PTK5 = target: T26, PTK5 (Homo sapiens, UniProt P42685)
T26 construct: purchased Millipore, Inc. (KinaseProfiler service)
In short: as §1

PTK6 = target: T27, PTK6 (Homo sapiens, UniProt Q13882)
T27 construct: purchased Millipore, Inc. (KinaseProfiler service)
In short: as §1

Rse = target: T28, Rse (Homo sapiens, UniProt Q06418)
T28 construct: purchased Millipore, Inc. (KinaseProfiler service)
In short: as §1

SRPK1 = target: T29, SRPK1 (Homo sapiens, UniProt Q96SB4)
T29 construct: purchased Millipore, Inc. (KinaseProfiler service)
In short: as §1

Syk = target: T30, Syk (Homo sapiens, UniProt P43405)
T30 construct: purchased Millipore, Inc. (KinaseProfiler service)
In short: as §1

TAK1 = target: T31, TAK1 (Homo sapiens, UniProt O43318)
T31 construct: purchased Millipore, Inc. (KinaseProfiler service)
In short: as §1

TLK2 = target: T32, TLK2 (Homo sapiens, UniProt Q86UE8)
T32 construct: purchased Millipore, Inc. (KinaseProfiler service)
In short: as §1

Txk = target: T33, Txk (Homo sapiens, UniProt P42681)
T33 construct: purchased Millipore, Inc. (KinaseProfiler service)
In short: as §1

ULK2 = target: T34, ULK2 (Homo sapiens, UniProt Q8IYT8)
T34 construct: purchased Millipore, Inc. (KinaseProfiler service)
In short: as §1

ULK3 = target: T35, ULK3 (Homo sapiens, UniProt Q6PHR2)
T35 construct: purchased Millipore, Inc. (KinaseProfiler service)
In short: as §1

ZAP-70 = target: T36, ZAP-70 (Homo sapiens, UniProt P43403)
T36 construct: purchased Millipore, Inc. (KinaseProfiler service)
In short: as §1

eEF-2K = target: T37, eEF-2K (Homo sapiens, UniProt O00418)
T37 construct: purchased Millipore, Inc. (KinaseProfiler service)
In short: as §1

p38alpha = target: T38, p38alpha (Homo sapiens, UniProt Q16539)
T38 construct: purchased Millipore, Inc. (KinaseProfiler service)
In short: as §1

p38beta = target: T39, p38beta (Homo sapiens, UniProt Q15759)
T39 construct: purchased Millipore, Inc. (KinaseProfiler service)
In short: as §1

p38delta = target: T40, p38delta (Homo sapiens, UniProt O15264)
T40 construct: purchased Millipore, Inc. (KinaseProfiler service)
In short: as §1

p38gamma = target: T41, p38gamma (Homo sapiens, UniProt P53778)
T41 construct: purchased Millipore, Inc. (KinaseProfiler service)
In short: as §1

T7 sequence (Q05397 whole entry): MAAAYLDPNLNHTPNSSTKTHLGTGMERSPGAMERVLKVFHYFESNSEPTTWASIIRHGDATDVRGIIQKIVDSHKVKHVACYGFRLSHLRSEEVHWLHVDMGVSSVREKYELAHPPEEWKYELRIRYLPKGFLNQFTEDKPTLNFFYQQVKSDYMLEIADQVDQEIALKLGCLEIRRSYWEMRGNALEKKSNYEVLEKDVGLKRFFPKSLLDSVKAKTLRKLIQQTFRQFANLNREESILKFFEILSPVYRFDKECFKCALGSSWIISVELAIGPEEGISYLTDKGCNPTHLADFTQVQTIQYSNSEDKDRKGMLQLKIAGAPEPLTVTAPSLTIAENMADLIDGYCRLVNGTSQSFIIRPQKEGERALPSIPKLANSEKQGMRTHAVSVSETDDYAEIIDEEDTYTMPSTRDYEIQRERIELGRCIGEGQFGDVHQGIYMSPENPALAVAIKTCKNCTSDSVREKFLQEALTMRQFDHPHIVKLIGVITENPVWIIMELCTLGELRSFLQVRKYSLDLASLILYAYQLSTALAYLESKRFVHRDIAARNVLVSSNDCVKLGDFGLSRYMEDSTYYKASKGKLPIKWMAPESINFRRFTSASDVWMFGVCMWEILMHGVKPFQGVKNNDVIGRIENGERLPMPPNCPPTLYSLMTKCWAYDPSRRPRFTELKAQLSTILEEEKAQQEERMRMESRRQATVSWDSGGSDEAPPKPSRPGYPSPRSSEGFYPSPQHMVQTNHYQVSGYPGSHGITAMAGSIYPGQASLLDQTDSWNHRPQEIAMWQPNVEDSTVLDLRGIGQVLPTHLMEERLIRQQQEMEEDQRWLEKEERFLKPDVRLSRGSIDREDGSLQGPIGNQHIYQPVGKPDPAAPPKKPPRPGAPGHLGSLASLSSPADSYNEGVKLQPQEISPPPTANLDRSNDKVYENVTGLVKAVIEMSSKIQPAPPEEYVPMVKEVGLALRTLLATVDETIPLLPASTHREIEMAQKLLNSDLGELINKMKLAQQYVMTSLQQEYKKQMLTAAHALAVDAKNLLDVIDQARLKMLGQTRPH
T2 sequence (Q00535 whole entry): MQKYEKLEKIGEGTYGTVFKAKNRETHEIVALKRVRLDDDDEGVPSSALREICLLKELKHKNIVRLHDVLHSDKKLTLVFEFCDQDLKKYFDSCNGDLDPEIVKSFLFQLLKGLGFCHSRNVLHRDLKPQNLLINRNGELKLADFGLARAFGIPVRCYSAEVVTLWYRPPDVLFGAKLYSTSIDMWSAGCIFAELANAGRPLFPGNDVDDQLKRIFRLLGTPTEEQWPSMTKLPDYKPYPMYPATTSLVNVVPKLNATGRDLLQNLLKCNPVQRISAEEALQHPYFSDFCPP
T2 sequence (Q15078 whole entry partner): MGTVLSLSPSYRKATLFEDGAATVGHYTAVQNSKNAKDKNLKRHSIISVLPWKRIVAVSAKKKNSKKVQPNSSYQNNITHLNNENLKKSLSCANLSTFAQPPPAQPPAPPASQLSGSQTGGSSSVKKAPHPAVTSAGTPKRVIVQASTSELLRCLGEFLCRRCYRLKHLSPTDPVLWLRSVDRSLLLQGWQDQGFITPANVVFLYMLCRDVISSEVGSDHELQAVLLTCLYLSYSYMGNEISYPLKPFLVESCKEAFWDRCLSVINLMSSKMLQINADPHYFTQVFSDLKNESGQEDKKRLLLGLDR
T21 sequence (Q9UBE8 whole entry): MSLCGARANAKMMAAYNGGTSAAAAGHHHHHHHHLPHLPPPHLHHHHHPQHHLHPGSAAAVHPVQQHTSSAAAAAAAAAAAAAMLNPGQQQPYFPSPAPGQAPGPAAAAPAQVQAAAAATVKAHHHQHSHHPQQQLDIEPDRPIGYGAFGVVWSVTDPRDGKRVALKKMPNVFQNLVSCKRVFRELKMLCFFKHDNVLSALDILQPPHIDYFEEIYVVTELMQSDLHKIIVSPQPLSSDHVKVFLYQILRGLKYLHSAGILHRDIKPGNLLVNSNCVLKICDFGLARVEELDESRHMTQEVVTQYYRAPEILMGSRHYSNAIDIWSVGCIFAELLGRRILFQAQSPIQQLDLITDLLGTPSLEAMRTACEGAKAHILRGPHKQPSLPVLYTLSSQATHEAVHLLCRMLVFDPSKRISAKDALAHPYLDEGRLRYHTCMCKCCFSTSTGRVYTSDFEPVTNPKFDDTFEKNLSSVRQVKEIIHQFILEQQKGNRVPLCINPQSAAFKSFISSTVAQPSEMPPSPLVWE
T17 sequence (Q02750 whole entry): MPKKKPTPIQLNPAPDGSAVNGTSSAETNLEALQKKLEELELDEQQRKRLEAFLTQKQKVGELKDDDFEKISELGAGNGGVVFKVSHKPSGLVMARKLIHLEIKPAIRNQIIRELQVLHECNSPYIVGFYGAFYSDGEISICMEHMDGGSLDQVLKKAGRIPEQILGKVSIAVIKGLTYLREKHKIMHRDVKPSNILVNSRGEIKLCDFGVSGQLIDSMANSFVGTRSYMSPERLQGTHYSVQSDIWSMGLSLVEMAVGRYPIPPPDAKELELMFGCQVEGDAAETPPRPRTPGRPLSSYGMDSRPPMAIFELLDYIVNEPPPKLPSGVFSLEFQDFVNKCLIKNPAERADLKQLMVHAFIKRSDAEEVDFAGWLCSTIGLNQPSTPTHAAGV
T38 sequence (Q16539 whole entry): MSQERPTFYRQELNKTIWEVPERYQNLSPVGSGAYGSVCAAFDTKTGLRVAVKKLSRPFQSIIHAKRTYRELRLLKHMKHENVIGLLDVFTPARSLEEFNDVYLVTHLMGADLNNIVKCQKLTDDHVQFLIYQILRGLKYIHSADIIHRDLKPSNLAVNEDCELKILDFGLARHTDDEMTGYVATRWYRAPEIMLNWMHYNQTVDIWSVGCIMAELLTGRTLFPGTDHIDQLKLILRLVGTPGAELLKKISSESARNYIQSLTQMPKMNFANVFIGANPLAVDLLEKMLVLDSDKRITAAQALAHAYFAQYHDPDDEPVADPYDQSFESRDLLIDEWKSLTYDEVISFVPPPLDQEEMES
T15 sequence (P49137 whole entry): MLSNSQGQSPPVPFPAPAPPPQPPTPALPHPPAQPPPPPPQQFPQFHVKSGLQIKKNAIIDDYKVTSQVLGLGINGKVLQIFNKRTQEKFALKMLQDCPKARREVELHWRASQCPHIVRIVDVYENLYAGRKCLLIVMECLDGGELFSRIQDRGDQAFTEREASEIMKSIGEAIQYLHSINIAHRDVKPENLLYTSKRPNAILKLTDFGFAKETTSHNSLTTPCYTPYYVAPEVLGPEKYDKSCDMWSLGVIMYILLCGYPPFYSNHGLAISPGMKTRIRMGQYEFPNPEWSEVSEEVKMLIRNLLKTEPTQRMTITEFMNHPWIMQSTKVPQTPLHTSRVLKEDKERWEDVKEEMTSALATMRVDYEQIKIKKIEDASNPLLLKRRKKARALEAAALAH
T16 sequence (Q8IW41 whole entry): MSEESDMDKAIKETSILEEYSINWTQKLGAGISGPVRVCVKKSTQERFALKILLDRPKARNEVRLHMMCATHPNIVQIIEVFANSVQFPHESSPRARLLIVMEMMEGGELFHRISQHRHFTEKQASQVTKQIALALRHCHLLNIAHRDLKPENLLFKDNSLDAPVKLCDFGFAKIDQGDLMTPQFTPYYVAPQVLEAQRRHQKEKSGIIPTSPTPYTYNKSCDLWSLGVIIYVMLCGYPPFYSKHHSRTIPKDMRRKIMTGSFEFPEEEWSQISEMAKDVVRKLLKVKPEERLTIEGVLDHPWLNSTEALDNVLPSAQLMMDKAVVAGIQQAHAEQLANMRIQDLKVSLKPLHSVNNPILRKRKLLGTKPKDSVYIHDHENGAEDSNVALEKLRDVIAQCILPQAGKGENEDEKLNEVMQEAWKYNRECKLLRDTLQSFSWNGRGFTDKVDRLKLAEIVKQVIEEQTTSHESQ
T5 sequence (Q8N568 whole entry): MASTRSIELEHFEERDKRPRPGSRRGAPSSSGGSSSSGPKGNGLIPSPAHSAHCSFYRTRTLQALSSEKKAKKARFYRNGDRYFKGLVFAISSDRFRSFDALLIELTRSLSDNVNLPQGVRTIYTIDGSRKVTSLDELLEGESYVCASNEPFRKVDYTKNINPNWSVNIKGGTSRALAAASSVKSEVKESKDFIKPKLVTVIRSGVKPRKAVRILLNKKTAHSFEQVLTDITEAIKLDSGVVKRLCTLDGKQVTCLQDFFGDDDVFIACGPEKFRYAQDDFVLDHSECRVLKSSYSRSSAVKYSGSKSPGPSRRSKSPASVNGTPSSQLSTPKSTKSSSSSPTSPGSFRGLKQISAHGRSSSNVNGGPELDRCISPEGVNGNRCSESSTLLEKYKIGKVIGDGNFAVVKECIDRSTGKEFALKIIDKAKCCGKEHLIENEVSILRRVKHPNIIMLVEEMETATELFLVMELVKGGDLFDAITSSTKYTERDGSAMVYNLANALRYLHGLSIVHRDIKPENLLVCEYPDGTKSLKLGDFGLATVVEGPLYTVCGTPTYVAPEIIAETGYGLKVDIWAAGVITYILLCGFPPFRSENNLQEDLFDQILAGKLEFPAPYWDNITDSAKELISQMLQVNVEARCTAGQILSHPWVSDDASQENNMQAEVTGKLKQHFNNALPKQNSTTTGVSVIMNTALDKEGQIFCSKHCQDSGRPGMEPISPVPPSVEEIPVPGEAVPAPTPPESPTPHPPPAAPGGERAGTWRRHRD
T40 sequence (O15264 whole entry): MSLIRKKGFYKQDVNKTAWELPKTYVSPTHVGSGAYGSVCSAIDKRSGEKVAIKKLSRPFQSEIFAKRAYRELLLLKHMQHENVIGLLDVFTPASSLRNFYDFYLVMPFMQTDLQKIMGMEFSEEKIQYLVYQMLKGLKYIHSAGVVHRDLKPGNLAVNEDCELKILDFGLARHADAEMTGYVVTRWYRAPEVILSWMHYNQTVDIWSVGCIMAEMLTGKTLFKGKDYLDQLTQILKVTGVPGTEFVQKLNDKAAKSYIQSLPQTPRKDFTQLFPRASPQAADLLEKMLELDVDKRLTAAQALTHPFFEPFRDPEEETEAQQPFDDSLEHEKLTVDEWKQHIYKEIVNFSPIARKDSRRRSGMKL

## Cc1c(-c2cnn(C)c2)nn(-c2ccccc2)c1NC(=O)Nc1sc(C(F)(F)F)nc1-c1ccccc1 [Example 2, 1-(1′,4-dimethyl-1-phenyl-1H,1′H-[3,4′-bipyrazol]-5-yl)-3-(4-phenyl-2-(trifluoromethyl)thiazol-5-yl)urea]
CDK1/cyclinB
  Avg POC: 106 POC
CDK5/p35
  Avg POC: 111 POC
CDK7/cyclinH/MAT1
  Avg POC: 113 POC
CSK
  Avg POC: 136 POC
DCAMKL2
  Avg POC: 210.5 POC
EphB4
  Avg POC: 130 POC
FAK
  Avg POC: 106 POC
FGFR3
  Avg POC: 117 POC
Flt4
  Avg POC: 107 POC
Hck
  Avg POC: 134.5 POC
IR
  Avg POC: 99 POC
IRAK4
  Avg POC: 112 POC
ITK
  Avg POC: 125.5 POC
Lck
  Avg POC: 103 POC
MAPKAP-K2
  Avg POC: 143.5 POC
MAPKAP-K5
  Avg POC: 95.5 POC
MEK1
  Avg POC: 103.5 POC
MRCKalpha
  Avg POC: 147.5 POC
NEK2
  Avg POC: 122.5 POC
NEK6
  Avg POC: 117.5 POC
NLK
  Avg POC: 125.5 POC
PKCepsilon
  Avg POC: 102 POC
PKCeta
  Avg POC: 103.5 POC
PKCgamma
  Avg POC: 90 POC
PKCtheta
  Avg POC: 130 POC
PTK5
  Avg POC: 104.5 POC
PTK6
  Avg POC: 113.5 POC
Rse
  Avg POC: 108 POC
SRPK1
  Avg POC: 114 POC
Syk
  Avg POC: 127.5 POC
TAK1
  Avg POC: 95.5 POC
TLK2
  Avg POC: 98 POC
Txk
  Avg POC: 163 POC
ULK2
  Avg POC: 91 POC
ULK3
  Avg POC: 90 POC
ZAP-70
  Avg POC: 133 POC
eEF-2K
  Avg POC: 151.5 POC
p38alpha
  Avg POC: 91 POC
p38beta
  Avg POC: 106.5 POC
p38delta
  Avg POC: 104.5 POC
p38gamma
  Avg POC: 105 POC
